Article PMC11253866 (RSC Medicinal Chemistry, 2024)
Read-outs that look alike come from different tables or passages of the source. Marks after values point to notes of the source that are not given here.

Tests used:
[1] = scale 0–6, cited from earlier work
[2] = Liver microsome stability assessment; assay type: in vitro ADME, rat; settings: LCMS analysis of liver microsome assay mixtures

SMILES | CNS MPO score [1] | CNS MPO score ([1]; listed as gabapentin) | major metabolic route [2]
NCC1(CC(=O)O)CCCCC1 [Gabapentin] | 4.2 ^a | 4.2 | 
CNCCCOc1ccc(S(=O)(=O)N2c3ccccc3Oc3ccccc32)cc1.O=C(O)C(F)(F)F [Compound 4a, 3-(4-((10H-Phenoxazin-10-yl)sulfonyl)phenoxy)-N-methylpropan-1-amine.TFA] |  |  | demethylation
CNCCC=C1c2ccccc2CCc2ccccc21 [nortriptyline] | 3.3 |  | 
CN(C)CCCOc1ccc(S(=O)(=O)N2c3ccccc3Oc3ccccc32)cc1.O=C(O)C(F)(F)F [Compound 4b, 3-(4-((10H-Phenoxazin-10-yl)sulfonyl)phenoxy)-N,N-dimethylpropan-1-amine.TFA] |  |  | demethylation
CN(C)CCCN1c2ccccc2CCc2ccc(Cl)cc21 [clomipramine] | 3.1 |  | 
COc1cccc(C2(O)CCCCC2CN(C)C)c1 (stereo not shown) [tramadol] | 4.6 |  | 
